# Measured values as given in BindingDB's records for doi:10.1007/bf00165806 (UniversitÄT Heidelberg, 1987).
# pKi: −log10 of the molar value.
# Legend:
# Adenosine receptor A2a = Adenosine receptor A2a (Homo sapiens, UniProt P29274)
# Adenosine receptor A1 = target: T1, Adenosine receptor A1 (Bos taurus, UniProt P28190)
# T1 sequence (P28190 whole entry): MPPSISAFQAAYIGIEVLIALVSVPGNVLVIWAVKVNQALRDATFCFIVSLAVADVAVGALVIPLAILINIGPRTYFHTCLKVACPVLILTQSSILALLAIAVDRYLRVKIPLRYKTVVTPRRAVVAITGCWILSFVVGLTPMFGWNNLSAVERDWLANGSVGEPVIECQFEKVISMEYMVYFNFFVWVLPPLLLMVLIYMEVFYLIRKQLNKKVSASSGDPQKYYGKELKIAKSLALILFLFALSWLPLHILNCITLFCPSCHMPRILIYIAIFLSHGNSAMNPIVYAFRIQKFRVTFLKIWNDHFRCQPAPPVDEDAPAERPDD
# Adenosine receptor A2a, sequence (P29274 whole entry): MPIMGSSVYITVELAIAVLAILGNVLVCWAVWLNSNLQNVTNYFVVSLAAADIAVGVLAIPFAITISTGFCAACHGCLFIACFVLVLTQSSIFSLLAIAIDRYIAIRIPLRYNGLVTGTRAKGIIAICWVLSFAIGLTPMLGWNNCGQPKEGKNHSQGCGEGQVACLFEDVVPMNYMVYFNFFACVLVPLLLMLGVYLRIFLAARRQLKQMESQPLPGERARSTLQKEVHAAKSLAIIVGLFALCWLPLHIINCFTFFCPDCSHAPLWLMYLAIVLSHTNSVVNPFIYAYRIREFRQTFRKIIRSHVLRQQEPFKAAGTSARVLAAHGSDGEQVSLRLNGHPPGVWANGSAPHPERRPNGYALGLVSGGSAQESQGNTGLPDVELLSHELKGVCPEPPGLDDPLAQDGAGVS
pKi (Adenosine receptor A2a),SMILES,pKi (Adenosine receptor A1)
6.68,"CCn1c(=O)c2[nH]c(-c3ccccc3)nc2n(CC)c1=O [1,3-Diethyl-8-phenyl-3,7-dihydro-purine-2,6-dione]",–
–,CCCn1c(=O)c2[nH]c(C3CCCC3)nc2n(CCC)c1=O [DPCPX],10.15
–,"CCCn1c(=O)c2[nH]c(-c3ccc(OCC(=O)NCCN)cc3)nc2n(CCC)c1=O [N-(2-Amino-ethyl)-2-[4-(2,6-dioxo-1,3-dipropyl-2,3,6,9-tetrahydro-1H-purin-8-yl)-phenoxy]-acetamide]",10.10
